What is called GI50 is the concentration at which growth is held to half of that of the control. The Cmax is the maximum level reached in the sampled fluid or tissue. As a reminder, the AUC(0-t) is exposure summed from dosing to a finite time, without extrapolation to infinity. For orientation: Tmax means the time from dosing to the highest level. Usually half-life stands for the time in which the quantity being followed falls by half. Read a high half-life as slow decline. One may read the bioavailability as dose-corrected exposure relative to a reference, in per cent.

These results are taken from publication PMC9954146, “Anti-Leukaemic Activity of Rilpivirine Is Mediated by Aurora A Kinase Inhibition” (Cancers, 2023).

The nature of data set [1]: In vivo safety profile in HL-60 engrafted mice. As to conditions: 200 mg/kg orally, once daily for 14 days. Set-up: species or system mouse. On the procedure:
Female 6–7-week-old BALB/c nude mice with tumour volumes of 100–200 mm^3 were allocated to two groups (n = 3 per group) and treated with vehicle (0.5% HPMC in water) or rilpivirine (200 mg/kg) daily for 14 days. Upon 24 h post the final dose, mice were humanely killed, and blood, bone marrow, heart, kidney, intestine, liver, and stomach were collected for histopathological analysis. Blood was collected in citrate-treated tubes and a complete blood count was performed by Gribbles Veterinary Pathology (South Australia, Australia). Organs were collected in 10% neutral buffered formalin and stained with hematoxylin and eosin externally by the Hanson Histology Services (South Australia, Australia), while histopathologic analysis was performed by a board-certified pathologist.

A short description of data set [2]: Tolerated dose in non-tumour-bearing mice. The class given is in vivo. As to conditions: up to an oral dose of 300 mg/kg, once daily for seven days; non-tumour-bearing female BALB/c nude mice. How it is done: Animal experiments were performed as reported previously. All animal experiments were conducted following the institutional ethical principles of animal care and approved by the University of South Australia Animal Ethics Committee.

Another data set relates to K-562 cells. The data set can be described thus: Resazurin cell viability assay. The class given is cell-based, human. As to conditions: Homo sapiens. How it is done:
(§1) Cell viability was determined by a resazurin-based assay as described previously. Briefly, 5 × 10^3 cells/well were seeded into 96-well plates (Corning Inc., Corning, NY, USA) in 180 µL of RPMI 1640 medium and incubated overnight at 37 °C with 5% CO2. Next day, cells were treated with rilpivirine after serially diluted (1:2 dilution for final concentrations ranging from 0.625 µM to 40 µM) or DMSO (0.1%) for specified time periods (24, 48, or 72 h). At the end of the treatment period, 20 µL of resazurin (0.1 mg/mL in PBS) was added per well and incubated for further 4 h. Fluorescence intensities were recorded at 570 nm (excitation)/585 nm (emission) using an EnVision® multilabel plate reader (PerkinElmer, MA, USA). Drug concentrations required for cell viability reduction by 50% (GI50) compared with untreated (DMSO vehicle-treated only) control were determined by a non-linear regression model using GraphPad Prism software version 7.02 (La Jolla, CA, USA).

Data set [3] in a line: Pharmacokinetic analysis in mice. The class given is in vivo, mouse. On the procedure:
A pharmacokinetic study was performed as described previously. The pharmacokinetics of rilpivirine was determined after administration of single 50 mg/kg oral (PO) and 2 mg/kg intravenous (IV) doses to male BALB/c hairy mice (n = 6 per route). Briefly, three blood samples were collected from both cheeks (left and right) and the heart of each mouse. A validated liquid chromatography-mass spectrometry/mass spectrometry (LC-MS/MS) technique was used to measure the drug concentrations in the plasma. Pharmacokinetic parameters were estimated using compartmental models (Phoenix, Certara, NJ, USA) and analysis was performed with WinNonlin 6.4 software (Princeton, NJ, USA).

The next data set concerns CK1(y). The data set can be described thus: Kinase panel. The class given is biochemical, yeast. As to conditions: 1 μM. On the procedure: (§2) Kinome-wide selectivity of rilpivirine was measured using the kinase screening and profiling service of Eurofins Scientific (Le bois l’Evêque 86600. Celle-Lévescault, France) and Ki values were determined using radioisotope-based assays by Reaction Biology Corporation (Malvern, PA, USA). The experimental details of Eurofin Scientific and Reaction Biology services for relevant assays are available at https://www.eurofinsdiscoveryservices.com/services/in-Vitro-assays/kinases/kinase-profiler (accessed on 7 July 2021) and https://www.reactionbiology.com (accessed on 7 July 2021), respectively. Ki values were estimated from the corresponding IC50 values using the Cheng–Prusoff equation [21] and the Km (ATP) of individual kinase was used for IC50 determination.

The subject of data set [4] is caspase 3/7 in HL-60, NB4, K-562, and U-937 cells. As to the kind of experiment: Caspase-3/7 activity assay. The following applies: 10 µM, 48 h, all cell lines. The class given is cell-based, human. How it is done:
Caspase-3/7 activity was measured after incubation of the cells with the test compounds for a specified time point using an Apo-ONE homogeneous caspase-3/7 kit (Promega, Madison, WI, USA) according to the manufacturer’s instructions. The signal was recorded by the EnVision multi-label plate reader (PerkinElmer, Beaconsfield, UK).

For the next data set, the target named is T1, YES (Homo sapiens, UniProt P07947).
T1 construct: purchased Reaction Biology Corporation (assay service)
As to the kind of experiment: Radioisotope-based kinase assay (Ki). The class given is biochemical. The following applies: apparent Ki from IC50 and Km (ATP). How it is done:
as §2

The subject of a further data set is PIM1. The data set can be described thus: Radioisotope-based kinase assay (Ki). The class given is biochemical. The following applies: PIM1 vs Aurora A. On the procedure:
as §2

In a further data set the target is T2, LYN (Homo sapiens, UniProt P07948).
T2 construct: purchased Reaction Biology Corporation (assay service)
As to the kind of experiment: Radioisotope-based kinase assay (Ki). The class given is biochemical. The following applies: apparent Ki from IC50 and Km (ATP). How it is done:
as §2

The test system of data set [5] is leukaemia cell lines (HL-60, NB4, K-562, and U-937). The data set can be described thus: Resazurin cell viability assay, four cell lines. The class given is cell-based. The following applies: Homo sapiens; after 24, 48, or 72 h of treatment; read-out: GI50 values, range over all cell lines. How it is done:
as §1
In general terms: Resazurin is reduced to fluorescent resorufin, in cell work by metabolically active cells.

Where [6] appears, read: male, BALB/c hairy, mouse, plasma, IV, 2 mg/kg single dose.
[7] abbreviates: male, BALB/c hairy, mouse, plasma, PO, 50 mg/kg single dose.

T1 sequence (P07947 whole entry): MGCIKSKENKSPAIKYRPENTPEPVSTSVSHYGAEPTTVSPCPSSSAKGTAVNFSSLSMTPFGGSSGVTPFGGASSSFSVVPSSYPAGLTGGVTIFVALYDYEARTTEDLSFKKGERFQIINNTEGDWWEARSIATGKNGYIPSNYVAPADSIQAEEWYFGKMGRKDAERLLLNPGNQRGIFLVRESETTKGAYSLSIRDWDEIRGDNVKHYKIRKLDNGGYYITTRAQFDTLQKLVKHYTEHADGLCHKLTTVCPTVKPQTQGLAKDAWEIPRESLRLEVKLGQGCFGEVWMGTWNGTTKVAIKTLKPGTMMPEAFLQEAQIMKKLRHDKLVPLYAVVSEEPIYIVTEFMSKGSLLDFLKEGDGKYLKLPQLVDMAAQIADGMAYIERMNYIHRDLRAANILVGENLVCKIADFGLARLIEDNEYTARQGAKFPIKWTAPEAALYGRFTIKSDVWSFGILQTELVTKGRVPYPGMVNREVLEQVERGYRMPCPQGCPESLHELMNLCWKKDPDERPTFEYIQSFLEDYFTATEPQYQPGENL
T2 sequence (P07948 whole entry): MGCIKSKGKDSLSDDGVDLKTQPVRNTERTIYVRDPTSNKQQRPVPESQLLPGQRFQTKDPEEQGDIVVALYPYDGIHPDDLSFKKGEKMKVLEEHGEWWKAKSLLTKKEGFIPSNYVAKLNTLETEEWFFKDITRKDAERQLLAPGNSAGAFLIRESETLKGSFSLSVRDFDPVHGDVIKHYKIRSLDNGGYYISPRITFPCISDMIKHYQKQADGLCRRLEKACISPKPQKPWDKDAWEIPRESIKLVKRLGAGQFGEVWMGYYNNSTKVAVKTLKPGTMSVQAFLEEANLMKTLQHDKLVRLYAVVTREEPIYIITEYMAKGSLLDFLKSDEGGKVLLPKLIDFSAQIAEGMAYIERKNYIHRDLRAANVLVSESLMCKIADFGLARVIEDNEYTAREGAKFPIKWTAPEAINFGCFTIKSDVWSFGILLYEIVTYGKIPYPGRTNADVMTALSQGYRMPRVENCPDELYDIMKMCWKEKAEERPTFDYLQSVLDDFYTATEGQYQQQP

For the molecule `Cc1cc(/C=C/C#N)cc(C)c1Nc1ccnc(Nc2ccc(C#N)cc2)n1` [rilpivirine, (E)-4-((4-((4-(2-cyanoethenyl)-2,6-dimethylphenyl)amino)pyrimidin-2-yl)amino)benzonitrile], in data set [1], the “complete blood count (red blood cells, neutrophils, lymphocytes, platelets)” value is given as “did not show any noticeable effects”. In addition, the “histopathology of major organs” value in [1] is reported as “did not cause any tissue damage in major organs”. Further, in data set [2], the “body weight and clinical signs of toxicity” value is “did not cause any significant changes in body weight (i.e., >15%) or show overt clinical signs of toxicity”. Besides, the GI50 in the data set with K-562 cells (K562, 24 h) was 12.4 ± 2.16 µM; in the data set with K-562 cells (K562, 48 h), 8.43 ± 0.37 µM; in the data set on K-562 cells (K562, 72 h), 7.36 ± 0.24 µM; in [5], 4.12 to 12.4 µM. Besides, the Cmax in [3] (IV, 2 mg/kg single dose, 2 mg/kg) was more than 20 µM; in data set [3] (PO, 50 mg/kg single dose, 50 mg/kg), more than 20 µM; in [3] (male, BALB/c hairy, mouse, plasma, iv, 2 mg/kg, 2 mg/kg single dose) it was 22.4 µM; in data set [3] (male, BALB/c hairy, mouse, plasma, po, 50 mg/kg, 50 mg/kg single dose) it was 33.3 µM. Also, the AUC(0-t) in data set [3] (setting [6]) came out at 20 µM·h; in [3] (setting [7]) it was 247 µM·h. The Tmax in [3] (setting [6]) stood at 0.033 h; in data set [3] (setting [7]) it was 1.5 h. Moreover, the half-life is 1.3 h in data set [3] (setting [6]) and 4.91 h in [3] (setting [7]). The same molecule yielded a bioavailability in data set [3] (setting [7]) of 49.1%. Also, the “% Residual Activity” value with CK1(y) came to 92%. Also, the “caspase 3/7 activation vs untreated control” value in data set [4] is “significantly increased”. The values for the Ki at YES and at LYN were 1.57 µM and 0.93 µM, respectively. Besides, the “potency against PIM1 relative to Aurora A kinase” value in the data set on PIM1 is listed as “four-and-a-half-fold less potent”.
